The values below come from patent US20230331803A1, “CO-AGONISTS OF THE GLP-1 AND AMYLIN RECEPTORS” (priority 2020, published 2023).

Like-named read-outs stand apart in the source and are kept apart here. Starred links: 1 amine or outer side, 2 acyl side, 3 side chain; linkers in the order of their positions; H or OH if unused. Non-standard residues stand in square brackets, D forms with d. Groups on a side chain read outwards from the residue. *: point of attachment. C20 diacid = O=C(O)CCCCCCCCCCCCCCCCCCC(=O)*; C18 diacid = O=C(O)CCCCCCCCCCCCCCCCC(=O)*; C16 diacid = O=C(O)CCCCCCCCCCCCCCC(=O)*; γGlu = O=C(O)[C@H](CCC(=O)[*:2])N[*:1]; εLys = N[C@@H](CCCCN[*:1])C(=O)[*:2]; Trx = NC[C@H]1CC[C@H](C(=O)O)CC1; AEEA = NCCOCCOCC(=O)O; Aib = CC(C)(N)C(=O)O

Test [1] has as its target T1, human amylin receptor (hAmyR3) (Homo sapiens, UniProt O60896+P30988).
T1 construct: host or cells: BHK cells (Hollex-1 line: human calcitonin receptor (a) + CRE-Luc), further transfected with human RAMP3
Put plainly: Human amylin receptor in vitro potency assay (CRE-luciferase reporter, BHK cells).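 Note: BHK cells expressing human calcitonin receptor plus RAMP3 (amylin-3 receptor) with a CRE-luciferase reporter, agonist activity read as luminescence from cAMP-driven transcription, 7-point serial dilutions.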 The class given is cell-based.

The next test deals with T2, human GLP-1 receptor (Homo sapiens, UniProt P43220).
T2 construct: expressed in transfected cells; host or cells: BHK (Baby Hamster Kidney) cells, clone BHK 467-12A KZ-10, stably transfected, with CRE-luciferase reporter
As to the kind of experiment: Human GLP-1 receptor in vitro potency assay (CRE-luciferase reporter, BHK cells). The class given is cell-based.

The mark [2] stands for this setting: Table 4a, BHK hAmyR3/CRE-Luc cells, 3 hours, read-out: Human AmyR3 potency [EC50 (pM)].
Where [3] appears, read: Table 4a, BHK cells expressing human GLP-1R, CRE-Luc, 3 hours, read-out: Human GLP-1R potency [EC50 (pM)].

T1 sequence (P30988 25-474): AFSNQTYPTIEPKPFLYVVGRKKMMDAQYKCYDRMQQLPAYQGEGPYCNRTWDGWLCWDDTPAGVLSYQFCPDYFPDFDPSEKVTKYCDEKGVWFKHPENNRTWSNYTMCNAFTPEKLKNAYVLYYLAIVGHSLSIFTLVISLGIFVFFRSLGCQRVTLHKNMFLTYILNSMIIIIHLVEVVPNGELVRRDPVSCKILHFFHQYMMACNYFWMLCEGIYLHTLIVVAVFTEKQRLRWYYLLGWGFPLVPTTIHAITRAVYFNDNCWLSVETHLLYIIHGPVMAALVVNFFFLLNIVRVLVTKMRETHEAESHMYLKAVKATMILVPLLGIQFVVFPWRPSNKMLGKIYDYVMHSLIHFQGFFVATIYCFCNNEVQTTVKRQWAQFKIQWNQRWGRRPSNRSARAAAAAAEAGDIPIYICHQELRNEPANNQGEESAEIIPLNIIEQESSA
T1 sequence (O60896 24-148): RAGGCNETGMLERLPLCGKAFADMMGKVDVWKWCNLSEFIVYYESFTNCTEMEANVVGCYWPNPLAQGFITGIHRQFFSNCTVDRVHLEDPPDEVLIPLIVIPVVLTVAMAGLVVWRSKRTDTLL
T2 sequence (P43220 24-463): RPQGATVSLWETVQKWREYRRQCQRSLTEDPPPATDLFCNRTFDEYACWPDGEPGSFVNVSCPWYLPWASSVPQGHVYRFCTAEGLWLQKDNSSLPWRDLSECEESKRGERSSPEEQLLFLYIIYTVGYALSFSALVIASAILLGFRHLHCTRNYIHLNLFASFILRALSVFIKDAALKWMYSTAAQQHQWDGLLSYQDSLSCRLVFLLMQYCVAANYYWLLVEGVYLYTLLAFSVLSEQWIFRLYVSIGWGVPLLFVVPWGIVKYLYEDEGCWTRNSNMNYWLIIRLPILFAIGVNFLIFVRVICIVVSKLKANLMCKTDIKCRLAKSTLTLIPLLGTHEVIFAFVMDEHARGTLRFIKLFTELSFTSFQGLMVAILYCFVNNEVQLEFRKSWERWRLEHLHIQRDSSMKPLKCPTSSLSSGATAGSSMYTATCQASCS

As for “H-HGEGTFTSDVSSYLEEQAARK([AEEA-AEEA-γGlu-C18 diacid])FIEWLVRGK([AEEA-AEEA-γGlu-C18 diacid])GEGGEASELSTAALGRLSAELHELATLPRTETGSGSP-NH2 [Compound 0090]”, the values for the EC50 (in test [1] (setting [2]); at human GLP-1 receptor (setting [3])) were 70.9 pM and 32.6 pM, respectively.

As to “H-H[Aib]EGTFTSDVSSYLEGQAAKEFIAWLVRGRK([εLys-AEEA-AEEA-γGlu-C18 diacid])GGEASELSTAALGRPSAELHELATLPRTETGSGSP-NH2 [Comparator compound 0185, reference compound]”, the EC50 amounted to 5660 pM in test [1] (Table 4c, further comparator compounds, read-out: Human AmyR3 potency [EC50 (pM)]) and 13.1 pM at human GLP-1 receptor (Table 4c, further comparator compounds). The “Ability to agonise the amylin receptor, in words” value in test [1] (Tables 4a-4c) is on record as “impaired their ability to agonise (activate) the amylin receptor”.

As for “H-H[Aib]EGTFTSDVSSYLEEQAAREFIAWLVRGRK([εLys-εLys-γGlu-C18 diacid])GGGGEASELSTAALGRLSAELHELATLPRTETGSGSP-NH2 [Compound 0656]”, the concentration giving a half-maximal response (EC50) in test [1] (setting [2]) came out at 13.3 pM; on human GLP-1 receptor (setting [3]), 4.1 pM.

For the compound `CC[C@H](C)[C@H](NC(=O)[C@H](Cc1ccccc1)NC(=O)[C@H](CCC(=O)O)NC(=O)[C@H](CCCCNC(=O)COCCOCCNC(=O)COCCOCCNC(=O)CC[C@H](NC(=O)CCCCCCCCCCCCCCCCC(=O)O)C(=O)O)NC(=O)[C@H](C)NC(=O)[C@H](C)NC(=O)[C@H](CCC(N)=O)NC(=O)CNC(=O)[C@H](CCC(=O)O)NC(=O)[C@H](CC(C)C)NC(=O)[C@H](Cc1ccc(O)cc1)NC(=O)[C@H](CO)NC(=O)[C@H](CO)NC(=O)[C@@H](NC(=O)[C@H](CC(=O)O)NC(=O)[C@H](CO)NC(=O)[C@@H](NC(=O)[C@H](Cc1ccccc1)NC(=O)[C@@H](NC(=O)CNC(=O)[C@H](CCC(=O)O)NC(=O)C(C)(C)NC(=O)[C@@H](N)Cc1c[nH]cn1)[C@@H](C)O)[C@@H](C)O)C(C)C)C(=O)N[C@@H](C)C(=O)N[C@@H](Cc1c[nH]c2ccccc12)C(=O)N[C@@H](CC(C)C)C(=O)N[C@H](C(=O)N[C@@H](CCCNC(=N)N)C(=O)NCC(=O)N[C@@H](CCCNC(=N)N)C(=O)NCC(=O)NCC(=O)N[C@@H](CCC(N)=O)C(=O)N[C@@H](CCC(=O)O)C(=O)N[C@@H](CCCCNC(=O)COCCOCCNC(=O)COCCOCCNC(=O)CC[C@H](NC(=O)CCCCCCCCCCCCCCCCC(=O)O)C(=O)O)C(=O)NCC(=O)N[C@@H](CCC(N)=O)C(=O)N[C@@H](CCC(=O)O)C(=O)N1CCC[C@H]1C(=O)N[C@@H](CCC(=O)O)C(=O)N[C@@H](C)C(=O)N[C@@H](CO)C(=O)N[C@@H](CCC(=O)O)C(=O)N[C@@H](CC(C)C)C(=O)N[C@@H](CO)C(=O)N[C@H](C(=O)N[C@@H](C)C(=O)N[C@@H](C)C(=O)N[C@@H](CC(C)C)C(=O)NCC(=O)N[C@@H](CCCNC(=N)N)C(=O)N[C@@H](CC(C)C)C(=O)N[C@@H](CO)C(=O)N[C@@H](C)C(=O)N[C@@H](CCC(=O)O)C(=O)N[C@@H](CC(C)C)C(=O)N[C@@H](Cc1c[nH]cn1)C(=O)N[C@@H](CCC(=O)O)C(=O)N[C@@H](CC(C)C)C(=O)N[C@@H](C)C(=O)N[C@H](C(=O)N[C@@H](CC(C)C)C(=O)N1CCC[C@H]1C(=O)N[C@@H](CCCNC(=N)N)C(=O)N[C@H](C(=O)N[C@@H](CCC(=O)O)C(=O)N[C@H](C(=O)NCC(=O)N[C@@H](CO)C(=O)NCC(=O)N[C@@H](CO)C(=O)N1CCC[C@H]1C(N)=O)[C@@H](C)O)[C@@H](C)O)[C@@H](C)O)[C@@H](C)O)C(C)C` [Compound 0057], the half-maximal effective concentration (EC50) in test [1] is 165 pM; on human GLP-1 receptor it was 59 pM.

With “H-H[Aib]EGTFTSDVSSYLEEQAARK([AEEA-AEEA-γGlu-C20 diacid])FIAWLVRGRGGGGGEASELSTAALGRLSAELHELATLPRTETGSGSP-NH2 [Compound 0562]”, the figures for the EC50 (in test [1] (setting [2]); at human GLP-1 receptor (setting [3])) were 4.1 pM and 19.3 pM, respectively.

Take “H-H[Aib]EGTFTSDVSSYLEEQAARK([AEEA-AEEA-γGlu-C18 diacid])FIEWLVRGK([AEEA-AEEA-γGlu-C18 diacid])GGEASELSTAALGRLSAELHELATLPRTETGSGSP-NH2 [Compound 0128]”: the concentration for a half-maximal effect (EC50) in test [1] (setting [2]) was determined as 110 pM; at human GLP-1 receptor (setting [3]) it was 9.7 pM.

Turning to “H-H[Aib]EGTFTSDK([AEEA-AEEA-γGlu-C16 diacid])SSYLEEQAAREFIAWLVRGRGGGGGEASELSTAALGRLSAELHELATLK([AEEA-AEEA-γGlu-C16 diacid])RTETGSGSP-NH2 [Compound 0261]”, the EC50 amounted to 23.9 pM in test [1] (setting [2]) and 17.4 pM at human GLP-1 receptor (setting [3]).

Regarding “H-H[Aib]EGTFTSDVSSYLEEQAAREFIAWLVRGRK([AEEA-AEEA-AEEA-AEEA-γGlu-C18 diacid])GGGGEASELSTAALGRLSAELHELATLPRTETGSGSP-NH2 [Compound 0662]”, the EC50 was determined as 14.6 pM in test [1] (setting [2]) and 3 pM on human GLP-1 receptor (setting [3]).

For “H-H[Aib]EGTFTSDVSSYLEGQAAREFIAWLVRGRGQEPK([AEEA-AEEA-γGlu-C18 diacid])GQAPASRLSTEALGRLSAELHELATLPRTETGSGSP-NH2 [Compound 0191]”, the concentration giving a half-maximal response (EC50) in test [1] (setting [2]) worked out at 54.8 pM; at human GLP-1 receptor (setting [3]), 5.9 pM.

“H-H[Aib]EGTFTSDVSSYLEEQAARK([AEEA-AEEA-γGlu-C18 diacid])FIEWLVRGRK([AEEA-AEEA-γGlu-C18 diacid])GGEASELSTAALGRLSAELHELATLPRTETGSGSP-NH2 [Compound 0129]”: the concentration giving a half-maximal response (EC50) came out at 23.5 pM in test [1] (setting [2]) and 1.2 pM on human GLP-1 receptor (setting [3]).

For the compound “H-HAEGTFTSDVSSYLEEK([AEEA-AEEA-γGlu-Trx-C20 diacid])AAREFIEWLVRGRGEASELSTAALGRLSAELHELATLPRTETGSGSP-NH2 [Compound 0414]”, the concentration for a half-maximal effect (EC50) turned out to be 17.7 pM in test [1] (setting [2]) and 11.2 pM on human GLP-1 receptor (setting [3]).

On to “H-H[Aib]EGTFTSDVSSYLEEQAARK([AEEA-AEEA-γGlu-C18 diacid])FIEWLVRGK([AEEA-AEEA-γGlu-C18 diacid])GEGGEASELSTAALGRLSAELHELATLPRTETGSGSP-NH2 [Compound 0089]”, for which the half-maximal effective concentration (EC50) in test [1] (setting [2]) stood at 65.5 pM; at human GLP-1 receptor (setting [3]) it was 5.7 pM.
